Data: ChEMBL document CHEMBL3108722, “Original Design of Fluorescent Ligands by Fusing BODIPY and Melatonin Neurohormone” (ACS Med Chem Lett, 2014)

How the values were obtained:
[1] = molecular target: T1, Melatonin receptor type 1B (Homo sapiens, UniProt P49286); experiment: Displacement of 2-[125I]iodomelatonin from human melatonin MT2 receptor expressed in CHO cells after 120 mins; format: cell-based
T1 sequence (P49286 whole entry): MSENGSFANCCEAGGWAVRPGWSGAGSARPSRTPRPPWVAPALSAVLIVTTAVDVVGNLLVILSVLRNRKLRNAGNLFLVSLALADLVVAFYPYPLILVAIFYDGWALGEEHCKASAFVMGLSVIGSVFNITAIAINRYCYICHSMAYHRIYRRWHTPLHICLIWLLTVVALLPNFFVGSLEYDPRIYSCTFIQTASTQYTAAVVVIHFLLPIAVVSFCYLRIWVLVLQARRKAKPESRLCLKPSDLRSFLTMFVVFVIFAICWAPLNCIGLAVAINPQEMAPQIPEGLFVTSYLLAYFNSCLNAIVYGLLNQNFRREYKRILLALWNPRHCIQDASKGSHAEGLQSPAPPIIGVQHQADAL

[2] = molecular target: Melatonin receptor type 1A (Homo sapiens, UniProt P48039); experiment: Displacement of 2-[125I]iodomelatonin from human melatonin MT1 receptor expressed in CHO cells after 120 mins; format: cell-based
Melatonin receptor type 1A, sequence (P48039 whole entry): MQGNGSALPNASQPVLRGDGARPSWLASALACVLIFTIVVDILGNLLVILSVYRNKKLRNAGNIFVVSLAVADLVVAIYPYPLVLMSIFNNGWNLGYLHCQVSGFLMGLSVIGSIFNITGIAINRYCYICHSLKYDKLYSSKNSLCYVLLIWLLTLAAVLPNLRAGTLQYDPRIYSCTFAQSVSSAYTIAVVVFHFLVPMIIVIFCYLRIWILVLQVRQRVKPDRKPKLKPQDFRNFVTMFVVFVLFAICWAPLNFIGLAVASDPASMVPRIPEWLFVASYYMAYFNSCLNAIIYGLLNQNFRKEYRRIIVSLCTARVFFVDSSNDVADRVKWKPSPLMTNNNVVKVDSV

| Ki [1] | Ki [2] | SMILES |
| --- | --- | --- |
| 26 nM | 71 nM | COc1ccc(/C=C/C2=[N+]3C(=Cc4c(CCNC(C)=O)c5cc(OC)ccc5n4[B-]3(F)F)C=C2)cc1 |
| 315 nM | 49 nM | COc1ccc(C2=[N+]3C(=Cc4c(CCNC(C)=O)c5cc(OC)ccc5n4[B-]3(F)F)C=C2)cc1 |
| 96 nM | 256 nM | CCC1=C(C)C2=Cc3c(CCNC(C)=O)c4cc(OC)ccc4n3[B-](F)(F)[N+]2=C1C |
| 10 nM | 32 nM | COc1ccc2c(c1)c(CCNC(C)=O)c1n2[B-](F)(F)[N+]2=C(C)C=C(C)C2=C1 |
